Experimental data published in patent publication US11207252B2, “Synergistic preservative blends” (priority 2013, dated 2021).

Experiments:
[1] = tested on: mixed inoculum of Staphylococcus aureus ATCC 6538, Pseudomonas aeruginosa ATCC 9027 and Escherichia coli ATCC 8739; test: Challenge test, bacteria, in unpreserved shampoo (Shampoo ULD); settings: room temperature, Example 1 at 1% or its components at 0.06% sorbic acid, 0.2% benzyl alcohol, 0.37% 1,2-propanediol, 0.37% 1,4-butanediol
Method: A mixed inoculum containing approximately equal amounts of Staphylococcus aureus ATCC 6538, Pseudomonas aeruginosa ATCC 9027 and Escherichia coli ATCC 8739 was prepared according to the following procedure:
One colony of each bacteria strain was transferred from a stock culture to a tryptic soy agar plate which was incubated for 18-24 h at 37±2° C. Subsequently, some colonies of each of the thus-obtained cultures were transferred to a tryptic soy broth tube which was again incubated for 18-24 h at 37±2° C. to obtain a bacteria subculture, 200 μL of which were added to 2 mL of NaCl-peptone solution in a sterile plastic tube to obtain an inoculum containing approximately 10^9 cfu/mL of the respective bacterium. Finally, the mixed inoculum was prepared by mixing equal volumes of each inoculum.
For comparison purposes, additional 20 g samples were tested using equivalent amounts of each of the components of the preservative composition either alone or in two- or three-component combinations. Each sample was then inoculated with 200 μL of the mixed inoculum obtained in step A) and shaken vigorously to obtain a homogeneous contamination. The samples were then stored at room temperature and the bacteria count was determined in intervals of 7 days by taking 200 μL samples, mixing each of them with 1.8 mL of inactivation medium, and homogeneously plating 100 μL of the resulting mixtures on the surface of agar plates which were incubated for 2-3 days at 37±2° C. After the incubation period the colonies formed on the agar plates were counted and the results translated into cfu/mL. If necessary, serial dilutions in NaCl-peptone were prepared to cope with high bacteria counts.

[2] = tested on: mixed inoculum of Candida albicans ATCC 10231 and Aspergillus niger ATCC 16404; test: Challenge test, fungi, in unpreserved shampoo pH 5.5 (Table 2); settings: shampoo of Table 2, pH 5.5, Example 1 at 1% or its components at 0.06% sorbic acid, 0.2% benzyl alcohol, 0.37% 1,2-propanediol, 0.37% 1,4-butanediol

Compound: C/C=C/C=C/C(=O)O [Sorbic Acid]
- Mixed Bacteria Germ Count, 7 days ([1]; 7 days): >10^4 cfu/g
- Mixed Bacteria Germ Count, 14 days ([1]; 14 days): >10^3 cfu/g
- Mixed Bacteria Germ Count, 21 days ([1]; 21 days): 6.7 × 10^2 cfu/g
- Mixed Bacteria Germ Count, 28 days ([1]; 28 days): 2.0 × 10^1 cfu/g
- Mixed Fungi Germ Count, 7 days ([2]; 7 days): >10^5 cfu/g
- Mixed Fungi Germ Count, 14 days ([2]; 14 days): >10^4 cfu/g
- Mixed Fungi Germ Count, 21 days ([2]; 21 days): >10^5 cfu/g
- Mixed Fungi Germ Count, 28 days ([2]; 28 days): >10^3 cfu/g
